The values that follow are results of earlier work, collected in PMC6099102, “Effect of the Nature of Donor Atoms on the Thermodynamic, Kinetic and Relaxation Properties of Mn(II) Complexes Formed With Some Trisubstituted 12-Membered Macrocyclic Ligands” (Frontiers in Chemistry, 2018).

SMILES strings stand for the structures. Read-outs that look alike come from different tables or passages of the source.

The conditions of series [1]: cited from earlier work; for log KML / log KMLH / log KMLOH: Mn(II) complex; for pMn: pH = 7.4, cM = cL = 10^−5 M.
For series [2] the following is noted: cited from earlier work.
The conditions of series [3]: cited from earlier work; for Σ log K2H: log K1H + log K2H.
The conditions of series [4]: cited from earlier work. The source holds these as a separate data set.
The mark [5] stands for this setting: I = 0.1 M KCl, ref Takács et al., [2014].
Where [6] appears, read: 0.1 M KCl, ref Takács et al., [2014].
Setting [7] is: ref Tircsó and Woods (in preparation).
Setting [8] is: I = 0.1 M KCl, ref Forgács et al., [2016].
Setting [9] is: I = 0.1 M KCl, ref Forgács et al., [2017].

Take `O=C(O)CN1CCN(CC(=O)O)CCN(CC(=O)O)CCN(CC(=O)O)CC1` [DOTA]: in series [1] (setting [5]), the “log KML” value is 19.44, the “log KMLH” value is on record as 3.96 and the pMn is given as 9.02. Also, in series [2] (ref Drahos et al., [2011]), the “k1 (proton-assisted dissociation)” value was 0.040 M⁻¹ s⁻¹. Besides, in series [3] (setting [6]), the “log K1H” value was 11.41, the “log K2H” value was 9.83, the “log K3H” value is listed as 4.38 and the “log K4H” value is 4.63. For the same molecule, in series [3] (setting [6]), the “log K5H” value is 1.92, the “log K6H” value is 1.58 and the “Σ log K2H” value was 21.24.
Turning to `CC(C(=O)[O-])N1CCN(C(C)C(=O)[O-])CCN(C(C)C(=O)[O-])CCN(C(C)C(=O)[O-])CC1.[Mn+2]` (centres unmarked) [[Mn(DOTMA)]^2−], in series [4] (setting [7]), the r1p is 1.76 mM⁻¹ s⁻¹. For the same molecule, the “k1 (proton-assisted dissociation)” value in series [2] (1.0 M KCl, proton-assisted dissociation of the [Mn(H2L)] complex, ref Tircsó and Woods (in preparation)) is 3.96e-05 M⁻¹ s⁻¹. Also, in series [2] (1.0 M KCl, ref Tircsó and Woods (in preparation)), the “t1/2 0.1 M HCl” value is 103 min. Also, in series [2] (1.0 M KCl, spontaneous dissociation of the [Mn(H2L)] complex, ref Tircsó and Woods (in preparation)), the “k0 (spontaneous dissociation)” value is 0.000104 s⁻¹.
With `O=C([O-])CN1CCN(CC(=O)O)CCN(CC(=O)[O-])CCN(CC(=O)O)CC1.[Mn+2]` [[Mn(H2DOTA)]], the r1p in series [4] (0.5 T field strength (20 MHz) and 37 °C, ref Wang and Westmoreland ([2009])) was 3.20 mM⁻¹ s⁻¹.
Regarding `CC(C(=O)[O-])N1CCN(C(C)C(=O)O)CCN(C(C)C(=O)[O-])CCN(C(C)C(=O)O)CC1.[Mn+2]` (centres unmarked) [[Mn(H2DOTMA)]], the r1p in series [4] (setting [7]) is 2.98 mM⁻¹ s⁻¹.
Regarding `O=C([O-])CN1CCNCCNCCN(CC(=O)[O-])CC1.[Mn+2]` [[Mn(cis-DO2A)]], in series [4] (ref Rolla et al. ([2013])), the r1p was 2.10^[a] mM^−1s^−1. Moreover, in series [2] (ref Garda et al. ([2016])), the “k1 (proton-assisted dissociation)” value was 100 M⁻¹ s⁻¹, the “k2 (proton-assisted dissociation)” value is 1.6 × 10^6 M^−2s^−1 and the “t1/2 pH = 7.4 cM = 10^−5 M” value is 58 h.
Turning to `CN(C)C(=O)CN1CCNCCNCCN(CC(=O)N(C)C)CC1.[Mn+2]` [[Mn(cis-DO2AM^Me2)]^2+], the r1p in series [4] (ref Forgács et al. ([2016])) was 2.50^[h] mM^−1s^−1. For the same molecule, in series [2] (setting [8]), the “k1 (proton-assisted dissociation)” value was 8.7 M⁻¹ s⁻¹, the “t1/2 0.1 M HCl” value was 0.0132 min and the “t1/2 pH = 7.4 cM = 10^−5 M” value is given as 556 h.
Take `O=C([O-])CN1CCNCCN(CC(=O)[O-])CCNCC1.[Mn+2]` [[Mn(trans-DO2A)]]: in series [4] (ref Rolla et al. ([2013])), the r1p was 1.50^[a] mM^−1s^−1. In series [2] (ref Garda et al. ([2016])), the “k1 (proton-assisted dissociation)” value is 85 M⁻¹ s⁻¹, the “k2 (proton-assisted dissociation)” value is 3.0 × 10^6 M^−2s^−1 and the “t1/2 pH = 7.4 cM = 10^−5 M” value is on record as 48 h.
Regarding `CN(C)C(=O)CN1CCN(CC(=O)N(C)C)CCN(Cc2ccccc2)CCN(Cc2ccccc2)CC1` [cis-Bz2DO2AM^Me2], in series [1] (setting [8]), the “log KML” value is 11.54, the “log KMLOH” value is listed as 10.44 and the pMn is listed as 6.00. In series [3] (setting [9]), the “log K1H” value is recorded as 11.11, the “log K2H” value was 8.22 and the “Σ log K2H” value is 19.33.
For `O=C(CN1CCNCCNCCN(CC(=O)NCc2ccccc2)CC1)NCc1ccccc1` [cis-DO2AM^Bz2], in series [1] (setting [9]), the “log KML” value is 10.72, the “log KMLOH” value was 9.44 and the pMn was 6.69. In series [3] (setting [9]), the “log K1H” value was 9.62, the “log K2H” value was 6.90 and the “Σ log K2H” value was 16.52.
`CN(C)C(=O)CN1CCNCCNCCN(CC(=O)N(C)C)CC1` [cis-DO2AM^Me2]: in series [1] (setting [8]), the “log KML” value is 12.64 and the pMn is 6.98. Also, in series [3] (setting [8]), the “log K1H” value is on record as 10.14, the “log K2H” value is recorded as 8.38 and the “Σ log K2H” value is on record as 18.52.
In the case of `O=C(O)CN1CCNCCNCCN(CC(=O)O)CC1` [cis-DO2A], in series [1] (ref Garda et al. ([2016])), the “log KML” value is listed as 15.68, the “log KMLH” value is given as 4.15 and the pMn is given as 7.27. For the same molecule, in series [3] (ref Garda et al. ([2016])), the “Σ log K2H” value is reported as 20.95, the “log K1H” value is reported as 11.44, the “log K2H” value is given as 9.51 and the “log K3H” value is 4.14. Moreover, in series [3] (ref Garda et al. ([2016])), the “log K4H” value was 1.55.
On to `O=C(O)CN1CCNCCN(CC(=O)O)CCNCC1` [trans-DO2A], for which, in series [1] (ref Garda et al. ([2016])), the “log KML” value was 14.64, the “log KMLH” value is given as 4.40 and the pMn is 6.52. In series [3] (ref Garda et al. ([2016])), the “Σ log K2H” value is on record as 21.44, the “log K1H” value is on record as 11.69, the “log K2H” value is recorded as 9.75 and the “log K3H” value was 3.97. Moreover, the “log K4H” value in series [3] (ref Garda et al. ([2016])) was 2.68.
